Key:
[1] = target: T1, human glucocorticoid receptor-α [GRX] isoform (Homo sapiens, UniProt P04150); experiment: Radioligand binding with human glucocorticoid receptor cytosol ([3H]-dexamethasone competition); settings: GRX cytosol expressed in insect SF21 cells, [3H]-Dex ~0.9 nM, 4° C. overnight; Ki by Cheng-Prusoff, KL ~[…]; read-out: Ki (nM) GR
T1 construct: host or cells: insect SF21 cells (baculovirus)
T1 sequence (P04150 1-777): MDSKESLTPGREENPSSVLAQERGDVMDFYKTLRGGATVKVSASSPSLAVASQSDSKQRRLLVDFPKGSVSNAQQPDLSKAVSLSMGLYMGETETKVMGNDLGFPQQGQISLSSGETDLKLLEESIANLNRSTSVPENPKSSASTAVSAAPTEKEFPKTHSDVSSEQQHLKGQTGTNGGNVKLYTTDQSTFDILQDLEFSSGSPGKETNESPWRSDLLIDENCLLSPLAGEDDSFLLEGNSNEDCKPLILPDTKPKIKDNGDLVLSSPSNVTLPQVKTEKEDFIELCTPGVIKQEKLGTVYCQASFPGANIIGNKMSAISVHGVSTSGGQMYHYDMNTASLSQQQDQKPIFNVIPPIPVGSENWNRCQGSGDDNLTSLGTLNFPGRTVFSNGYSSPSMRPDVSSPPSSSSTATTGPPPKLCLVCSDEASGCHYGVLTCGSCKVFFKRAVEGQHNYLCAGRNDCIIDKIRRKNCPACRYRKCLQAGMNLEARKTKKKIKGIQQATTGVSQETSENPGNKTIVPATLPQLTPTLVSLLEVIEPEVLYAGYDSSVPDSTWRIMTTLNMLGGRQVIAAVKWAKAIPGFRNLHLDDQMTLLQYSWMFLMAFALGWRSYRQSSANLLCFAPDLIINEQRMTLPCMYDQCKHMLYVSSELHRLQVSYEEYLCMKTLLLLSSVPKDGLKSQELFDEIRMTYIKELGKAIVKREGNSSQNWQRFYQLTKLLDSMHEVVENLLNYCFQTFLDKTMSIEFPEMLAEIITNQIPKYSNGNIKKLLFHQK

[2] = target: T2, human progesterone receptor-A [PRA] isoform (Homo sapiens, UniProt P06401); experiment: Radioligand binding with human progesterone receptor cytosol ([3H]-progesterone competition); settings: PRA cytosol expressed in insect SF21 cells, [3H]Prog ~0.8 nM, 4° C. overnight; Ki by Cheng-Prusoff, KL ~4.5 nM; read-out: Ki (nM) PR
T2 construct: host or cells: insect SF21 cells (baculovirus)
T2 sequence (P06401 1-769 isoform P06401-2): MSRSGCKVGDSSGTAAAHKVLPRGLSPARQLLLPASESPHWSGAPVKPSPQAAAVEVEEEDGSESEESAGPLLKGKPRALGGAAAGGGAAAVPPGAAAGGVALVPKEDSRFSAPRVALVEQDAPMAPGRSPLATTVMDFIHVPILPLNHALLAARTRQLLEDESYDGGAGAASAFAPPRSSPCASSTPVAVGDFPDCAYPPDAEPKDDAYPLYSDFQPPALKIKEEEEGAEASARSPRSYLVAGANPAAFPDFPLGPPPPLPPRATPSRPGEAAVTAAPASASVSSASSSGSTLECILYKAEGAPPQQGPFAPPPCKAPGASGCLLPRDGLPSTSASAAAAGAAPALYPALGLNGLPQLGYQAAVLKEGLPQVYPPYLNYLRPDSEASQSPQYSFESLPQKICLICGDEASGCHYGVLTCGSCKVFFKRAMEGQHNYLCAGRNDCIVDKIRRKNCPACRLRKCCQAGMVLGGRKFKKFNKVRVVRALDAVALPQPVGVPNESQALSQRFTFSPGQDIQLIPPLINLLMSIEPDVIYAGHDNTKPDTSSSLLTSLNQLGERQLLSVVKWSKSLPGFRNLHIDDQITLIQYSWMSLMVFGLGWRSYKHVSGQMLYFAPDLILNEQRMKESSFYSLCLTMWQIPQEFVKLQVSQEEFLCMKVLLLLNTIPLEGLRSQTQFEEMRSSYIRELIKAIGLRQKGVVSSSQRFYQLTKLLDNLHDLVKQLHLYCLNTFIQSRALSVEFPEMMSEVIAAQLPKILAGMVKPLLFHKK

Row | Compound | Ki [1] | Ki [2]
1 | COC(=O)C1=C[C@@H]([C@@H]2Oc3ccc(O)c(OC)c3-c3ccc4c(c32)C(C)=CC(C)(C)N4)CC1 (racemic) [Example 271, (+/−)2,5-Dihydro-9-hydroxy-10-methoxy-2,2,4-trimethyl-5(S)-(3(S)-1-methylcarboxylatecyclopenten-3-yl)-1H-[1]benzopyrano[3,4-f]quinoline] | 0.82 nM | 2290 nM
2 | COc1c(O)ccc2c1-c1ccc3c(c1[C@@H]([C@@H]1C=CCC1)O2)C(C)=CC(C)(C)N3 [Example 286] | 64 nM | 3030 nM
3 | COc1c(O)ccc2c1-c1ccc3c(c1C(c1c(F)c(F)c(F)c(F)c1F)O2)C(C)=CC(C)(C)N3 (racemic) [Example 269, (±)2,5-Dihydro-9-hydroxy-10-methoxy-2,2,4-trimethyl-5-(2,3,4,5,6-pentafluorophenyl)-1H-[1]benzopyrano[3,4-f]quinoline] | 17.1 nM | 2470 nM
4 | C=CCC1Oc2ccc(Cl)c(C=C)c2-c2ccc3c(c21)C(C)=CC(C)(C)N3 (stereo not drawn) [Example 228, 5-(3-Propenyl)-9-chloro-10-ethenyl-2,2,4-trimethyl-2,5-dihydro-1H-[1]benzopyrano[3,4-f]quinoline] | 5.4 nM | 29.5 nM
5 | COc1c(O)ccc2c1-c1ccc3c(c1CO2)C(C)=CC(C)(C)N3 [Example 279, 2,5,5-Trihydro-9-hydroxy-10-methoxy-2,2,4-trimethyl-1H-[1]benzopyrano[3,4-f]quinoline] | 12.4 nM | 1900 nM
6 | COc1cccc2c1-c1ccc3c(c1C(c1cccc(OS(=O)(=O)c4ccc(C)cc4)c1)O2)C(C)=CC(C)(C)N3 (stereo not drawn) [Example 93, 3-(2,5-Dihydro-10-methoxy-2,2,4-trimethyl-1H-[1]benzopyrano[3,4-f]quinolin-5-yl)phenol 4-Methylbenzenesulfonate (Ester)] | 148 nM | ≥ 10000 nM
7 | C=CCC1Oc2ccc(CO)c(OC)c2-c2ccc3c(c21)C(C)=CC(C)(C)N3 (stereo not drawn) [Example 386, 2,5-Dihydro-9-hydroxymethyl-10-methoxy-2,2,4-trimethyl-5-allyl-1H-[1]benzopyrano[3,4-f]quinoline] | 6.5 nM | 105 nM
8 | C=CCC1Oc2cccc(OC(F)F)c2-c2ccc3c(c21)C(C)=CC(C)(C)N3 (stereo not drawn) [Example 8, 10-(Difluoromethoxy)-2,5-dihydro-2,2,4-trimethyl-5-(2-propenyl)-1H-[1]benzopyrano[3,4-f]quinoline] | 168 nM | 6010 nM
9 | O-[3-(2,5-Dihydro-10-methoxy-2,2,4-trimethyl-1H-[1]benzopyrano[3,4-f]quinolin-5-yl)phenyl]ester [Example 102] | 17.7 nM | ≥ 10000 nM
10 | COc1c(O)ccc2c1-c1ccc3c(c1C(c1ccsc1)O2)C(C)=CC(C)(C)N3 (stereo not drawn) [Example 444, 2,5-Dihydro-9-hydroxy-10-methoxy-2,2,4-trimethyl-5-(3-thienyl)-1H-[1]benzopyrano[3,4-f]quinoline] | 1.6 nM | 406 nM
11 | COc1cccc2c1-c1ccc3c(c1C(c1cccc(O)c1)O2)C(C)=CC(C)(C)N3 (stereo not drawn) [Example 13, 3-(2,5-Dihydro-10-methoxy-2,2,4-trimethyl-1H-[1]benzopyrano[3,4-f]quinolin-5-yl)phenol] | 11.1 nM | ≥ 10000 nM
12 | CC/C=C/CC1Oc2cccc(OC)c2-c2ccc3c(c21)C(C)=CC(C)(C)N3 (stereo not drawn) [Example 192, trans 2,5-Dihydro-10-methoxy-5-(2-penten-1-yl)-2,2,4-trimethyl-1H-[1]benzopyrano[3,4-f]quinoline] | 3.1 nM | ≥ 10000 nM
13 | COc1cccc2c1-c1ccc3c(c1[C@@H]([C@@H]1C=C(CO)CCC1)O2)C(C)=CC(C)(C)N3 [Example 156, (+) (5R,3′S) 2,5-Dihydro-10-methoxy-5-(1-hydroxymethyl-3-cyclohexenyl)-2,2,4-trimethyl-1H-[1]benzopyrano[3,4-f]quinoline] | 0.9 nM | 4100 nM
14 | COc1c(O)ccc2c1-c1ccc3c(c1/C(=C/c1cccc(F)c1F)O2)C(C)=CC(C)(C)N3 [Example 373, (Z)-9-Hydroxy-10-methoxy-5-([2,3-difluorophenyl]methylene)-2,2,4-trimethyl-1H-2,5-dihydro-[1]benzopyrano[3,4-f]quinoline] | 3.1 nM | 279 nM
15 | COc1c(O)ccc2c1-c1ccc3c(c1C(C1CCCCC1)O2)C(C)=CC(C)(C)N3 (stereo not drawn) [Example 278, 2,5-Dihydro-9-hydroxy-10-methoxy-2,2,4-trimethyl-5-cyclohexyl-1H-[1]benzopyrano[3,4-f]quinoline] | 1.1 nM | 533 nM
16 | C=CCC1Oc2ccc(CO)c(Cl)c2-c2ccc3c(c21)C(C)=CC(C)(C)N3 (stereo not drawn) [Example 410, 2,5-Dihydro-9-hydroxymethyl-10-chloro-2,2,4-trimethyl-5-allyl-1H-[1]benzopyrano[3,4-f]quinoline] | 1.1 nM | 25.7 nM
17 | COCC1=CC(C2Oc3cccc(OC)c3-c3ccc4c(c32)C(C)=CC(C)(C)N4)CCC1 (stereo not drawn) [Example 160] | 1.8 nM | ≥ 10000 nM
18 | COc1cccc2c1-c1ccc3c(c1C(c1cc(C)cc(N4CCCC4)c1)O2)C(C)=CC(C)(C)N3 (stereo not drawn) [Example 113, 2,5-Dihydro-10-methoxy-2,2,4-trimethyl-5-[3-methyl-5-(1H-pyrrolidin-1-yl)phenyl]1H-[1]benzopyrano[3,4-f]quinoline] | 9.7 nM | ≥ 10000 nM
19 | CC1=CC(C)(C)Nc2ccc3c(c21)C(c1ccccc1)Oc1cccc(Cl)c1-3 (racemic) [Example 310, (+/−)2,5-Dihydro-10-chloro-2,2,4-trimethyl-5-phenyl-1H-[1]benzopyrano[3,4-f]quinoline] | 4.4 nM | 382 nM
20 | C#CCOc1ccc2c(c1OC)-c1ccc3c(c1C(CC=C)O2)C(C)=CC(C)(C)N3 (stereo not drawn) [Example 294, 10-Methoxy-9-(3-propynyloxy)-5-(3-propenyl)-2,2,4-trimethyl-1H-2,5-dihydro[1]benzopyrano[3,4-f]quinoline] | 13.8 nM | 1810 nM
21 | COc1cccc2c1-c1ccc3c(c1C(C1C=CCCC1(C)C)O2)C(C)=CC(C)(C)N3 (stereo not drawn) [Example 140] | 13 nM | ≥ 10000 nM
22 | C=CCCC1Oc2ccc(O)c(OC)c2-c2ccc3c(c21)C(C)=CC(C)(C)N3 (stereo not drawn) [Example 261, 2,5-Dihydro-9-hydroxy-10-methoxy-2,2,4-trimethyl-5-(3-butenyl)-1H-[1]benzopyrano[3,4-f]quinoline] | 0.75 nM | 161 nM
23 | C=C(COC(C)=O)CC1Oc2cccc(OC)c2-c2ccc3c(c21)C(C)=CC(C)(C)N3 (stereo not drawn) [Example 49] | 13 nM | ≥ 10000 nM
24 | COc1cccc2c1-c1ccc3c(c1C(C/C=C/CO)O2)C(C)=CC(C)(C)N3 (stereo not drawn) [Example 195, (E) 2,5-Dihydro-10-methoxy-5-(4-hydroxy-2-buten-1-yl)-2,2,4-trimethyl-1H-[1]benzopyrano[3,4-f]quinoline] | 25 nM | ≥ 10000 nM
25 | CC1=CC(C)(C)Nc2ccc3c(c21)C(c1ccccc1)Oc1cccc(O)c1-3 (stereo not drawn) [Example 7, 2,5-Dihydro-2,2,4-trimethyl-5-phenyl-1H-[1]benzopyrano[3,4-f]quinolin-10-ol] | 4.3 nM | 5680 nM
26 | C=Cc1cccc2c1-c1ccc3c(c1C(C1C=C(C)CCC1)O2)C(C)=CC(C)(C)N3 (stereo not drawn) [Example 341] | 2.5 nM | ≥ 10000 nM
27 | COc1c(O)ccc2c1-c1ccc3c(c1C(C1C=CCCC1)O2)C(C)=CC(C)(C)N3 (racemic) [Example 236] | 0.89 nM | 36.2 nM

From patent publication US6506766B1 (Abbott Laboratories, priority 1998, dated 2003)
